Reference: US20050256073A1, “Immunostimulatory viral RNA oligonucleotides” (Coley Pharmaceutical Group, Inc., priority 2004, published 2005)
pEC50: −log10 of the molar value. Several values for one entry are separate records, joined by “and”; a condition that tells them apart may be missing. Equal entries are not always repeated. Where two headings read alike, the source gives them in different places.

Experiments:
Assay type in all cases: cell-based
human PBMC [1] = settings: for pEC50: read-out: TNF production EC50
human PBMC [2] = settings: for pEC50: read-out: IFN-γ production EC50
human PBMC [3] = settings: for pEC50: read-out: IFN-α production EC50
human PBMC [4] = system: human PBMC
human CD14+ cells = assay: CD80 expression on human CD14+ cells (FACS)
[5] = system: human CD19+ cells (B cells); assay: CD80 expression on human CD19+ cells (FACS)
human TLR8 = biological target: T1, human TLR8 (Homo sapiens, UniProt Q9NR97); assay: NF-κB-luciferase readout in HEK293 cells stably transfected with human TLR8
T1 construct: expressed in transfected cells; host or cells: HEK293 cells, stably transfected, with NF-κB-luciferase reporter construct
T1 sequence (Q9NR97 27-1041): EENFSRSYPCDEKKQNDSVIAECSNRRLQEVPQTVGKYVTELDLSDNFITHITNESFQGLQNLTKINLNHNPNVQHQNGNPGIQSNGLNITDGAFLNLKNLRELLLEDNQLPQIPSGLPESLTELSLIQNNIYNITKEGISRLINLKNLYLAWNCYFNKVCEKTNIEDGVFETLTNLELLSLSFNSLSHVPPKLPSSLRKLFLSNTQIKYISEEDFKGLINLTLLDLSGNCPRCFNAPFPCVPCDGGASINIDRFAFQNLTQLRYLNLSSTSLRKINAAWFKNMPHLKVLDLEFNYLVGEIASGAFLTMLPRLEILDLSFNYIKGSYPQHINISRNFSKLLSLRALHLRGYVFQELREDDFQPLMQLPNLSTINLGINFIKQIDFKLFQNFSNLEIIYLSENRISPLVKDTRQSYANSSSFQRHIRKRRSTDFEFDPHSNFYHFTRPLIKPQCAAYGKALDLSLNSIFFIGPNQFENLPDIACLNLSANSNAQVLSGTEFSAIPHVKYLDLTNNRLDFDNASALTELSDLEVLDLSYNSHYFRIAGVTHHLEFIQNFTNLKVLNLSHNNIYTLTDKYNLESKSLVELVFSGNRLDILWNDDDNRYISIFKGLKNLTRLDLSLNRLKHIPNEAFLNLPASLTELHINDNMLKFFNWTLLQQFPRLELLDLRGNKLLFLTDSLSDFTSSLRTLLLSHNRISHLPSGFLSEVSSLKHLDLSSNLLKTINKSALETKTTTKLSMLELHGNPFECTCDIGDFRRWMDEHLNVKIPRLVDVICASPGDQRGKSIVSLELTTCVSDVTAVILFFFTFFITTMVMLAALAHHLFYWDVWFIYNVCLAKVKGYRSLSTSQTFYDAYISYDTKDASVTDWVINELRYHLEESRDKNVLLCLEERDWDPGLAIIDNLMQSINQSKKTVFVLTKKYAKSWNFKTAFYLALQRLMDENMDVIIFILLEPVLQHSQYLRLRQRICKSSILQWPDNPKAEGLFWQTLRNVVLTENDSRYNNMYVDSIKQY
Procedure: (§1) Emitted light varied in direct proportion to NF-κB activation.
(§2) The effect of immunostimulatory oligonucleotide was assessed by titrating the amount or concentration of oligonucleotide concentration in a given experiment. The effect of immunostimulatory oligonucleotide concentration was expressed in terms of EC50 (concentration at which immunostimulatory oligonucleotide was 50 percent effective compared to maximum effect). The potency of a given immunostimulatory oligonucleotide was expressed as maximum stimulation index (SI max; the maximum fold increase in signal over that of untreated control) or maximum activity.
(§3) Stimulation and measurement of signal transduction in HEK293 cells stably transfected with either human TLR8 or human TLR9 and an NF-κB-luciferase reporter construct was performed essentially as described in Example 1. […] Results are expressed in terms of EC50 in μM and stimulation index (SI)=fold induction of NF-κB-luciferase activity in ligand-pulsed cells.

human TLR9 = biological target: T2, human TLR9 (Homo sapiens, UniProt Q9NR96); assay: NF-κB-luciferase readout in HEK293 cells stably transfected with human TLR9
T2 construct: expressed in transfected cells; host or cells: HEK293 cells, stably transfected, with NF-κB-luciferase reporter construct
T2 sequence (Q9NR96 26-1032): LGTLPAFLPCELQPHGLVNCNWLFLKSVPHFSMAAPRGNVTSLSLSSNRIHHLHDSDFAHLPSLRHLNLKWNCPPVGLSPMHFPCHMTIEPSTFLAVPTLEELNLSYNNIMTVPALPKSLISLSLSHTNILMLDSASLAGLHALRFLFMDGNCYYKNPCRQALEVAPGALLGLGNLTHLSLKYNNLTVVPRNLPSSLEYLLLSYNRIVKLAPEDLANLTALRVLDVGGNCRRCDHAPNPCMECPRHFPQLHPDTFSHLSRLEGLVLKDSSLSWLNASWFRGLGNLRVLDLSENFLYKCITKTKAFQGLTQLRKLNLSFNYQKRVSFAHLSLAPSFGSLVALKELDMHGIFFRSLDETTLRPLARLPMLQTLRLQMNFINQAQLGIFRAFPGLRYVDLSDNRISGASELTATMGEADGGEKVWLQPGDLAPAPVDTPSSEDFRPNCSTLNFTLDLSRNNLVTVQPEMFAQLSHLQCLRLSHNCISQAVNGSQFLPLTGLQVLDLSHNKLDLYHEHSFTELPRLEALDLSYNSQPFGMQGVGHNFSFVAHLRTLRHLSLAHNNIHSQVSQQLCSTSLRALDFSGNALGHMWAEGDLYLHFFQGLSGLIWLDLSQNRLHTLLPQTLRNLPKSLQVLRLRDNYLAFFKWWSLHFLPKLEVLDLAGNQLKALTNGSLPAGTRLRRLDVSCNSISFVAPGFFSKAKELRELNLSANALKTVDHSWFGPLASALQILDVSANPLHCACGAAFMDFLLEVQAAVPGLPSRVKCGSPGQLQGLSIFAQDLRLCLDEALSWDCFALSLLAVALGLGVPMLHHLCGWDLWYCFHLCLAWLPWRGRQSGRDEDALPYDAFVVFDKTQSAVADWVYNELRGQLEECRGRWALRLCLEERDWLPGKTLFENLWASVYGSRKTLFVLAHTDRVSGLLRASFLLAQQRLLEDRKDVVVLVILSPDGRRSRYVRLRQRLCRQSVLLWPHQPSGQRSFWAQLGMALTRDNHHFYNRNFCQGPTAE
Procedure: as §1, §2, §3

| Substance | TNF production max activity (human PBMC [1]) | pEC50 (human PBMC [1]) | IFN-γ production max activity (human PBMC [2]) | IFN-α production max activity (human PBMC [3]) [pg/mL] | pEC50 (human PBMC [3]) | also measured |
| --- | --- | --- | --- | --- | --- | --- |
| AAUGGUUUGUUUGUCUUCGU [ORN 7] | 7500 pg/mL and 10000 pg/mL and 7000 pg/mL and 8000 pg/mL and 5000 pg/mL | 6.45 and 6.49 and 6.26 and 6.33 and 6.37 | 50000 pg/mL and 80000 pg/mL and 65000 pg/mL | – | – | pEC50 (human PBMC [2]): 6.31 and 6.19 and 6.25 |
| AGCGAAAGCAGGUCAAUUAU [ORN 5, reference compound] | 0 pg/mL | – | 0 pg/mL | 0 | – | – |
| AUAAUUGACCUGCUUUCGCU [ORN 4] | 5750 pg/mL and 8000 pg/mL and 5000 pg/mL | 6.39 and 6.40 and 6.25 and 6.29 and 6.33 | – | – | – | pEC50 (human PBMC [2]): 6.20 and 6.31 and 6.25; profile of immunostimulation (cytokines induced) (human PBMC [4]): very broad, including induction of TNF-α, IL-6, IL-12 p40, IFN-α, and IFN-γ; induction of co-stimulatory molecule CD80 on CD14+ cells (human CD14+ cells): induce; induction of co-stimulatory molecule CD80 on CD19+ cells (B cells) [5]: induce |
| CUUACCCAACUUUGUUUGGU [ORN 2] | 9500 pg/mL and 8000 pg/mL and 13000 pg/mL and 10000 pg/mL and 7000 pg/mL | – | 50000 pg/mL and 40000 pg/mL and 45000 pg/mL | – | 7.47 and 7.17 and 7.22 and 7.42 and 7.30 | pEC50 (human PBMC [2]): 6.29 and 6.28 |
| GCCACCGAGCCGAAGGCAAC [ORN 21, reference compound] | 0 pg/mL | – | – | 0 | – | immunostimulatory activity (in words) (human PBMC [4]): no immunostimulatory activity |
| GCCACCGAGCCGAUUGUACC [ORN 22] | 23833 pg/mL | 6.61 | – | 2417 | 5.96 | – |
| GCCACCGAGCCGAUUUUACC [ORN 23] | 25500 pg/mL | 6.64 | – | 2333 | 7.39 | – |
| GGGGAUGAUGTUGTGGGGGGG [ORN 20] | 0 pg/mL | – | – | 0 | – | – |
| GGGGAUGAUGUUGUGGGGGGG [ORN 19] | 37667 pg/mL | 6.38 | – | 2867 | 6.89 | – |
| TCGTCGTTTTCGGCGCGCGCCG [CpG ODN 2395, reference compound] | – | – | – | – | – | induction of co-stimulatory molecule CD80 on CD19+ cells (B cells) [5]: induce |
| TUGTUGTTTTGTUGTTTTGTUGTT [ORN 16] | 56667 pg/mL | 6.63 | – | 2267 | 5.96 | – |
| TUGTUGTTTTUGGUGGUUGUUG [ORN 18] | 61667 pg/mL | 6.70 | – | 2617 | 7.10 | – |
| UCGUCGUUUUGUCGUUUUGUCGUU [ORN 14] | 53833 pg/mL | 7.11 | – | 2783 | 7.43 | – |
| UGUUUUUUCUCUUGUUUGGU [ORN 3] | – | 6.38 and 6.33 and 6.47 and 6.39 | 60000 pg/mL and 70000 pg/mL and 65000 pg/mL | – | – | pEC50 (human PBMC [2]): 6.28 and 6.22 and 6.25; induction of co-stimulatory molecule CD80 on CD14+ cells (human CD14+ cells): induce; induction of co-stimulatory molecule CD80 on CD19+ cells (B cells) [5]: induce |
| UUGAUCUGGUUGUUAAGCGU [ORN 6] | 8750 pg/mL and 10000 pg/mL and 7000 pg/mL and 8000 pg/mL | 6.34 and 6.39 and 6.22 and 6.30 and 6.31 | 60000 pg/mL and 30000 pg/mL and 45000 pg/mL | – | – | pEC50 (human PBMC [2]): 6.20 and 6.23 and 6.21 |
| UUGUACGCAUUUUUUCGCGU [ORN 1] | 8500 pg/mL and 8000 pg/mL and 10000 pg/mL | 6.31 and 6.38 and 6.33 and 6.28 and 6.32 | 50000 pg/mL and 60000 pg/mL and 55000 pg/mL | – | – | pEC50 (human PBMC [2]): 6.23 and 6.29 and 6.26 |
| UUGUUGUUUUGUUGUUUUGUUGUU [ORN 15] | 60000 pg/mL | 7.40 | – | 2500 | 8.30 | – |
| UUGUUGUUUUUGGUGGUUGUUG [ORN 17] | 70000 pg/mL | 7.24 | – | 3000 | 7.82 | – |
| dNdNdNdNdNdNUUGUGdNdNdNdNdNdNdN [ORN 31] | 18000 pg/mL | 5.31 | – | 766.7 | 5.41 | – |
| dNdNdNdNdNdNUUGUdNdNdNdNdNdNdNdN [ORN 32] | 30000 pg/mL | 5.10 | – | 666.7 | 5.34 | – |
| dNdNdNdNdNdNUUGdNdNdNdNdNdNdNdNdN [ORN 33] | 0 pg/mL | – | – | 0 | – | – |
| dNdNdNdNdNdNdNUGdNdNdNdNdNdNdNdNdN [ORN 34] | 0 pg/mL | – | – | 0 | – | – |
| dTdCdGdTdCdGdTdTdT 2′-5′ (GUUGUGU) dAdAdT [ORN 13] | 0 pg/mL | – | 0 pg/mL | – | 7.82 and 7.60 | TLR8 stimulation (in words) (human TLR8): lost; TLR9 stimulation (in words) (human TLR9): maintained; pEC50 (human TLR9; Table 11, HEK293, NF-κB-luciferase): 6.96 |
